Experimental data reported in US10273283B2, “Modified integrin polypeptides, modified integrin polypeptide dimers, and uses thereof” (THE CHILDREN'S MEDICAL CENTER CORPORATION, priority 2014, dated 2019).
Ends that are not written are not given here.

Tests used:
αvβ6 headpiece = target: T1, αvβ6 headpiece (Homo sapiens, UniProt P06756+P18564, I287C/M430C); experiment: Competition binding with FITC-[…] by fluorescence anisotropy, αvβ6 headpiece; details: FIG. 1C
T1 construct: The αv headpiece (residues 1-594) with M400C mutation was followed by a 3C protease site; β6 headpiece residues 1-474 with I270C or β3 headpiece residues 1-472 with Q267C were followed by the 3C site; 3C protease site (C, cleaved yes); ACID coiled-coil (C, cleaved yes); Strep-II tag (C, cleaved yes); His tag (C, cleaved yes); 3C site (C, cleaved yes); BASE coiled-coil (C, cleaved yes); made in house; host or cells: HEK293s Gnt I- cells
Experimental: (§1) Ligands bind to the integrin headpiece, which contains the α-subunit β-propeller domain and thigh domain, and the β-subunit βI, hybrid, PSI, and EGF1 domain. […] (SEQ ID NO: 68), peptide affinity for the αvβ6 and αvβ3 headpiece was measured with fluorescence anisotropy.
(§2) Binding affinities were calculated as described in Ref. 23. […] Competition binding assays used 200 nM αvβ6 or 4 μM αvβ3 headpiece, 5 nM of fluorescence probe, and competing peptide serially diluted in 3-fold decrement from 500 μM to 0.5 nM.

αvβ3 headpiece = target: T2, αvβ3 headpiece (Homo sapiens, UniProt P05106+P06756, M430C/Q293C); experiment: Competition binding with FITC-[…] by fluorescence anisotropy, αvβ3 headpiece; details: FIG. 1D
T2 construct: The αv headpiece (residues 1-594) with M400C mutation was followed by a 3C protease site; β6 headpiece residues 1-474 with I270C or β3 headpiece residues 1-472 with Q267C were followed by the 3C site; 3C protease site (C, cleaved yes); ACID coiled-coil (C, cleaved yes); Strep-II tag (C, cleaved yes); His tag (C, cleaved yes); 3C site (C, cleaved yes); BASE coiled-coil (C, cleaved yes); made in house; host or cells: HEK293s Gnt I- cells
Experimental: as §1, §2

integrin αvβ6 headpiece = target: T3, integrin αvβ6 headpiece (Homo sapiens, UniProt P06756+P18564, I287C/M430C); experiment: Saturation binding of fluorescence probe to αvβ6 headpiece by fluorescence anisotropy; details: buffer at indicated pH, FIG. 2C
T3 construct: The αv headpiece (residues 1-594) with M400C mutation was followed by a 3C protease site; β6 headpiece residues 1-474 with I270C or β3 headpiece residues 1-472 with Q267C were followed by the 3C site; 3C protease site (C, cleaved yes); ACID coiled-coil (C, cleaved yes); Strep-II tag (C, cleaved yes); His tag (C, cleaved yes); 3C site (C, cleaved yes); BASE coiled-coil (C, cleaved yes); made in house; host or cells: HEK293s Gnt I- cells
Experimental: A fluorescence probe for integrin αvβ6, the sequence of which is FITC-[…] (SEQ ID NO: 68), was synthesized. […] By competition binding assay, the affinities of Different Ligands were Measured.
Fluorescence anisotropy was in 150 mM NaCl, 1 mM Mg^2+/Ca^2+, 20 mM HEPES, pH 7.4 or buffer at indicated pH with 5 nM fluorescence probe (FITC-pro-TGF-β3 peptide, FITC-[…] (SEQ ID NO: 68)). Binding affinities were calculated as described in Ref. 23. In saturation binding assays, the anisotropy of the fluorescence probe was measured while αvβ6 headpiece (starting at 2.67 μM) or αvβ3 headpiece (starting at 75 μM) was serially diluted in 3-fold decrements. Competition binding assays used 200 nM αvβ6 or 4 μM αvβ3 headpiece, 5 nM of fluorescence probe, and competing peptide serially diluted in 3-fold decrement from 500 μM to 0.5 nM.

Sequence | Fold lower affinity for αvβ6 than the pro-TGF-β1/β3 peptides (αvβ6 headpiece) | Fold lower affinity for αvβ3 than for αvβ6 (αvβ3 headpiece) | Effect of pH on affinity of αvβ6 for the peptide (integrin αvβ6 headpiece)
TSGDQKTIK [pro-TGF-β2 peptide] | 1,000 fold | – | –
GRGDLGRLK [pro-TGF-β3 nonapeptide, GRGDLGRLK (SEQ ID NO: 75)] | – | 1,000 fold | sharp decrease in affinity between pH 7 and 6
